Experiments:
[1] = Inhibition of SARS coronavirus 2 3 main viral protease 3-chymotrypsin-like activity expressed in Escherichia coli using Dabcyl-VNSTLQSGLRK(FAM)MA as substrate measured by fluorescence intensity assay; parameters: species or system Severe acute respiratory syndrome coronavirus 2
HEK-293T = assay: Cytotoxicity against human HEK293T cells assessed as reduction in cell viability; assay type: cell-based

| Compound | IC50 [1] [µM] | IC50 (HEK-293T) [µM] |
| --- | --- | --- |
| CC12CN(CC(=O)O)CC(C)(CN(CC(=O)O)C1)C2=O | 7.1 | > 1000 |
| Cn1nc(C(=O)N2CC3(C)CN(C(=O)c4nn(C)c5c4Cc4ccccc4-5)CC(C)(C2)C3=O)c2c1-c1ccccc1C2 | 13 | > 800 |
| CC12CN(C(=O)/C=C/c3ccccc3)CC(C)(CN(C(=O)/C=C/c3ccccc3)C1)C2=O | 4.8 | > 1000 |
| C=CC(=O)N1CC2(C)CN(C(=O)C=C)CC(C)(C1)C2 | 99.6 | > 1000 |
| CC12CN(C(=O)OC(C)(C)C)CC(C)(CN(C(=O)OC(C)(C)C)C1)C2 | 17.9 | 302 |
| CC12CN(C(=O)/C=C/c3ccccc3)CC(C)(CN(C(=O)/C=C/c3ccccc3)C1)C2 | 46.6 | 253 |
| CC(C)(C)OC(=O)N1CC2(C)CN(C(=O)OC(C)(C)C)CC(C)(C1)C2=O | 5.9 | > 1000 |
| CC12CN(Cc3cn(Cc4ccccc4)nn3)CC(C)(CN(Cc3cn(Cc4ccccc4)nn3)C1)C2=O | 2.2 | 560 |
| C#CC(=O)N1CC2(C)CN(C(=O)C#C)CC(C)(C1)C2=O | 5.5 | 57.3 |
| CCOC(=O)c1n[nH]cc1-n1cc(CN2CC3(C)CN(Cc4cn(-c5c[nH]nc5C(=O)OCC)nn4)CC(C)(C2)C3=O)nn1 | 16.3 | > 700 |
| Cn1nc(C(=O)N2CC3(C)CN(C(=O)c4cc(-c5cccs5)n(C)n4)CC(C)(C2)C3=O)cc1-c1cccs1 | 4.99 | 456 |
| CC(C)(C)OC(=O)NCCn1cc(CN2CC3(C)CN(Cc4cn(CCNC(=O)OC(C)(C)C)nn4)CC(C)(C2)C3=O)nn1 | 0.83 | 410 |
| CC12CN(C(=O)c3ccccc3)CC(C)(CN(C(=O)c3ccccc3)C1)C2=O | 3.3 | 692 |
| CCOC(=O)c1cc(-n2cc(CN3CC4(C)CN(Cc5cn(-c6cc(C(=O)OCC)n[nH]6)nn5)CC(C)(C3)C4=O)nn2)[nH]n1 | 13.6 | – |
| CC12CN(CCN(CC(=O)O)CC(=O)O)CC(C)(CN(CCN(C(=O)O)C(=O)O)C1)C2=O | 33.7 | 257 |
| CC12CNCC(C)(CNC1)C2=O | 2.6 | > 1000 |
| CC(C)(C)OC(=O)Cn1cc(CN2CC3(C)CN(Cc4cn(CC(=O)OC(C)(C)C)nn4)CC(C)(C2)C3=O)nn1 | 2.02 | 465 |
| CC12CN(Cc3ccccc3)CC(C)(CN(Cc3ccccc3)C1)C2=O | 0.9 | 359 |
| CC12CN(C(=O)c3cc(-c4ccccc4)n(-c4ccccc4)n3)CC(C)(CN(C(=O)c3cc(-c4ccccc4)n(-c4ccccc4)n3)C1)C2=O | 1.4 | > 700 |
| C#CCN1CC2(C)CN(CC#C)CC(C)(C1)C2=O | 8.8 | > 1000 |
| CC(C)Cc1ccc(C(C)C(=O)O)cc1 (stereo not given) [IBUPROFEN] | > 500 | – |
| CC(=O)N1CC2(C)CN(C(C)=O)CC(C)(C1)C2=O | 18.5 | > 1000 |
| Cc1cc(CN2CC3(C)CN(Cc4cc(C)no4)CC(C)(C2)C3=O)on1 | 5.2 | > 700 |
| CC12CN(CC#N)CC(C)(CN(CC#N)C1)C2=O | 5.5 | > 700 |
| Cn1nc(C(=O)N2CC3(C)CN(C(=O)c4nn(C)c5c4CCc4ccccc4-5)CC(C)(C2)C3=O)c2c1-c1ccccc1CC2 | 0.75 | > 800 |
| Cn1nc(C(=O)N2CC3(C)CN(C(=O)c4cc(-c5ccccc5)n(C)n4)CC(C)(C2)C3=O)cc1-c1ccccc1 | 1.45 | > 900 |

— ChEMBL document CHEMBL5030568, “Design and Evaluation of Bispidine-Based SARS-CoV-2 Main Protease Inhibitors” (ACS Med Chem Lett, 2022)
